PubChem BioAssay (NCI)
“And” between values parts separate entries of the source, which are not always exact repeats. Identical values can stand only once.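 Test compounds were applied to cells in 96-well plates for 48 hours at 5 doses. Abbreviation: GI50, concentration required for 50% inhibition of growth. TGI: total growth inhibition.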

Key:
Assay in all cases: inhibition of tumour cell growth, NCI panel, 48 h
[1] = system: MCF7 breast
[2] = system: SF-539 CNS
[3] = system: BT-549 breast
[4] = system: HOP-92 NSCLC
[5] = system: SNB-75 CNS
[6] = system: PC-3 prostate
[7] = system: DU-145 prostate
[8] = system: SNB-19 CNS
[9] = system: NCI-H226 lung
[10] = system: A498 renal

| SMILES | GI50 [1] | TGI [1] | GI50 [2] | TGI [2] | GI50 [3] | TGI [3] | GI50 [4] | TGI [4] | GI50 [5] | TGI [5] | GI50 [6] | TGI [6] | GI50 [7] | TGI [7] | GI50 [8] | TGI [8] | GI50 [9] | TGI [9] | GI50 [10] | TGI [10] |
| --- | --- | --- | --- | --- | --- | --- | --- | --- | --- | --- | --- | --- | --- | --- | --- | --- | --- | --- | --- | --- |
| Cc1ccc2c(c1)nc(C(=O)c1ccco1)c(C(F)(F)F)[n+]2[O-] | > 100 µM | > 100 µM | > 100 µM | > 100 µM | 78.5 µM | > 100 µM | 40.1 µM | > 100 µM | 76.7 µM | > 100 µM | 50.2 µM | > 100 µM | > 100 µM | > 100 µM | > 100 µM | > 100 µM | > 100 µM | > 100 µM | 1.66 µM | 3.06 µM |
| CC1=C(/C=C/C(C)=C\C=C\C(C)=C\C(=O)Nc2ccc3c(c2)OCO3)C(C)(C)CCC1 | 11.2 µM | > 100 µM | 51.3 µM | > 100 µM | 98.5 µM | > 100 µM | 35.8 µM | > 100 µM | 7.41 µM | > 100 µM | 41.2 µM | > 100 µM | > 100 µM | > 100 µM | > 100 µM | > 100 µM | > 100 µM | > 100 µM | > 100 µM | > 100 µM |
| CN(C)CCCn1c2c(c3cnccc3c1=O)C(=O)c1ccccc1-2 | 0.244 µM | 1.76 µM | 0.377 µM | 2.9 µM | 1.2 µM | 8.43 µM | 0.203 µM | 2.68 µM | 0.82 µM | 4.03 µM | 0.485 µM | 3.93 µM | 0.49 µM | 3.43 µM | 0.362 µM | 3.96 µM | 0.388 µM | 2.85 µM | 1.17 µM | 5.95 µM |
| Nc1ccccc1C#C/C=C\C#Cc1ccccc1C(F)(F)F | 1.56 µM | > 47.5 µM | 0.669 µM | 3.55 µM | 0.699 µM | 17.3 µM | 21.5 µM | 48 µM | 0.0869 µM | 18.8 µM | 4.41 µM | 45.1 µM | 2.7 µM | 14.7 µM | 10.5 µM | 58.7 µM | 0.233 µM | 19.3 µM | 2.55 µM | 16.9 µM |
| N#Cc1c(C(=O)c2ccccc2)cnn1-c1ccccc1 | > 25 µM | > 25 µM | > 25 µM | > 25 µM | > 25 µM | > 25 µM | > 25 µM | > 25 µM | > 25 µM | > 25 µM | > 25 µM | > 25 µM | > 25 µM | > 25 µM | > 25 µM | > 25 µM | > 25 µM | > 25 µM | > 25 µM | > 25 µM |
| O=c1cccc(C#CC#C[C@H]2O[C@@H]2CO)o1 | 0.472 µM | 4.28 µM | 1.07 µM | 2.84 µM | 1.19 µM | 3.02 µM | 0.285 µM | 0.531 µM | 1.89 µM | 3.52 µM | 0.664 µM | 2.01 µM | 1.56 µM | 3.24 µM | 6.24 µM | 14.4 µM | 0.309 µM | 1.11 µM | 2.03 µM | 4.34 µM |
| C=C1[C@@H](C)[C@H]2[C@H](Cc3ccccc3)NC(=O)[C@]23OC(=O)/C=C/[C@H](O)CCC[C@@H](C)C/C=C/[C@H]3[C@@H]1O |  | > 100 µM |  | 43.8 µM |  | > 64.3 µM |  | 4.23 µM |  | 1.3 µM |  | > 100 µM |  | > 100 µM |  | 64.1 µM |  | 23.4 µM |  | 16.5 µM |
| O=C(O)c1cc2ccccc2c(O)c1O |  | 28.4 µM |  | 38.1 µM |  | 30 µM |  | > 54.9 µM |  | 31.7 µM |  | 37 µM |  | 32.3 µM |  | 35.8 µM |  | 42.7 µM |  | 51.7 µM |
| Cc1ccc(C(=O)Nc2ccc(CN3CCN(C)CC3)c(C(F)(F)F)c2)cc1C#Cc1cnc(N)cc1C#N | 0.701 µM | 1.58 µM | 0.277 µM | 0.926 µM | 0.654 µM | 2.67 µM | 0.0496 µM | 0.566 µM | 0.112 µM | 0.798 µM | 0.343 µM | 1.76 µM | 0.127 µM | 0.838 µM | 0.539 µM | 1.3 µM | 0.155 µM | 4.95 µM | 0.159 µM | 0.701 µM |
| NC(=O)c1cnc(N[C@@H]2CCCC[C@@H]2N)nc1Nc1cccc(-n2nccn2)c1 | 2.33 µM | 10.2 µM | 5.44 µM | 17.2 µM | 6.37 µM | 19 µM | 2.7 µM | 8.72 µM | 2.21 µM | 12.4 µM | 5.16 µM | 20.7 µM | 3.84 µM | 15.8 µM | 10.7 µM | 25 µM | 4.73 µM | 17.8 µM | 4.62 µM | 17.4 µM |
| COc1ccccc1-[n+]1cc(-c2ccc(-c3ccccc3)cc2)n2c1CCCCC2 | 0.229 µM | 11.2 µM | 0.348 µM | 13.2 µM | 0.15 µM | 1.25 µM | 0.184 µM | 1.97 µM | 0.325 µM | 13.4 µM | 0.228 µM | 8.95 µM | 0.444 µM | 14.8 µM | 0.261 µM | 12.1 µM | 0.773 µM | 13.4 µM | 0.615 µM | 7.5 µM |
| COc1ccc(-n2c(SCc3cc(OC)c(OC)c(OC)c3)nc3ccc(C)cc3c2=O)c(OC)c1 | 3.23 µM | > 100 µM | 2.88 µM | 7.82 µM | 4.31 µM | > 100 µM | 2.58 µM | > 100 µM | 3.14 µM | > 100 µM | 3.63 µM | > 100 µM | 3.72 µM | > 100 µM | 6.99 µM | > 100 µM | > 100 µM | > 100 µM | 2.25 µM | 40.3 µM |
| CC12CCC3C(CC=C4CC(O)CCC43C)C1C/C(=C\N1CCCC1)C2=O (centres undefined) | > 100 µM | > 100 µM | > 100 µM | > 100 µM | 41 µM | > 100 µM | 4.52 µM | 83.7 µM | 41.5 µM | > 100 µM | 55 µM | > 100 µM | > 100 µM | > 100 µM | > 100 µM | > 100 µM | > 100 µM | > 100 µM | > 100 µM | > 100 µM |
| O=C(/C=C/c1cccnc1)NCCCCC1CCN(C(=O)c2ccccc2)CC1 |  | > 100 µM | < 0.01 µM | > 100 µM | 6.11 µM and 19.6 µM | > 100 µM | 26.8 µM and > 32 µM | > 100 µM | > 73.6 µM | > 100 µM | < 0.01 µM | > 100 µM | 0.0234 µM and < 0.0315 µM | > 100 µM | 0.615 µM and 4.43 µM | > 100 µM | > 100 µM and 62.3 µM | > 100 µM | > 100 µM and 14.5 µM | > 100 µM and 97.8 µM |
| CC1=C([Se]CC(OC(=O)CC[Se]c2ccccc2)C(=O)NCCCCCC(=O)OCc2ccccc2)C(=O)c2ccccc2C1=O (centres undefined) | 2.51 µM | 12.7 µM | 2.36 µM | 6.03 µM | 2.99 µM | 12.2 µM | 2.46 µM | 5.91 µM | 1.71 µM | 6.23 µM | 2.26 µM | 12.4 µM | 3.64 µM | 11.4 µM | 2.72 µM | 11 µM | 2.75 µM | 7.07 µM | 2.25 µM | 8.48 µM |
| O=c1c2ccccc2c2ccccc2c(=O)n1-c1cc2c3ccccc3ccc2c2ccccc12 |  | > 100 µM |  | > 100 µM |  | > 100 µM |  | > 100 µM |  | > 100 µM |  | > 100 µM |  | > 100 µM |  | > 100 µM |  | > 100 µM |  | > 100 µM |
| COc1ccc(/C=C/C(=O)c2cc3c(N)c(C(=O)Nc4ccccc4Cl)sc3nc2C)cc1 | 0.25 µM | 22 µM | 2.04 µM | 9.45 µM | 7.24 µM | 32 µM | 0.689 µM | 4.18 µM | 1.12 µM | 4.32 µM | 2.92 µM | > 50 µM | 2.78 µM | > 50 µM | 3.8 µM | 23.1 µM | 2.43 µM | 17.4 µM | 0.866 µM | 4.51 µM |
| O=C(O)C(=Cc1ccnc2ccccc12)C(=O)O |  | > 100 µM |  | > 100 µM |  | > 100 µM |  | > 100 µM |  | > 100 µM |  | > 100 µM |  | > 100 µM |  | > 100 µM |  | > 100 µM |  | > 100 µM |
| O=Cc1c(-c2cc(O)ccc2O)nc2sccn12 | 14.3 µM | > 100 µM | 20.3 µM | 52 µM | 18 µM | 48.8 µM | 10.7 µM | 27.3 µM | 36.9 µM | > 100 µM | 11.9 µM | 38.3 µM | 22.6 µM | 49.2 µM | 42.6 µM | > 100 µM | 14.7 µM | 37.7 µM | 29.5 µM | 78.9 µM |
| C=C1C(=O)O[C@H]2[C@H]1CC/C(COC(=O)NCc1cc3ccccc3[nH]1)=C\CC[C@@]1(C)O[C@@H]21 | 1.45 µM | 3.26 µM | 1.73 µM | 3.26 µM | 1.56 µM | 3.14 µM | 1.29 µM | 2.98 µM | 3.91 µM | 19.2 µM | 1.63 µM | 3.46 µM | 1.52 µM | 2.93 µM | 5.62 µM | 20.4 µM | 1.6 µM | 3.15 µM | 10.9 µM | 23.4 µM |
| CCN(CC)c1ccc(/C=C\c2cc(C)c3cc(C)ccc3n2)cc1 | 2.95 µM | > 100 µM | 3.79 µM | 46.8 µM | 5.07 µM | > 100 µM | 1.66 µM | 7.06 µM | 4.83 µM | > 100 µM | 3.69 µM | 81.1 µM | 9.08 µM | > 100 µM | 51.7 µM | > 100 µM | 7.29 µM | > 100 µM | 2.19 µM | 8.33 µM |
| C(=N\Nc1ccccn1)/c1ccccn1 | 0.401 µM | > 100 µM | 0.333 µM | 2.31 µM | 1.62 µM | > 100 µM |  | > 82.7 µM | 0.665 µM | > 93.4 µM |  | > 100 µM | 0.324 µM |  | 0.547 µM | > 100 µM | 0.356 µM |  | 0.273 µM |  |
| C/C(=N/S(=O)(=O)c1ccc(Cl)c(Cl)c1)OCC(C)(C)C |  | > 100 µM |  | > 100 µM |  | > 100 µM |  | > 100 µM |  | > 100 µM |  | > 100 µM |  | > 100 µM |  | > 100 µM |  | > 100 µM |  | > 100 µM |
| CC(=O)Nc1ccc(/C=C/[N+](=O)[O-])cc1 |  | 9.72 µM |  | 6.35 µM |  | 12.4 µM |  | 17.4 µM |  | 7.64 µM |  | 16.7 µM |  | > 43.4 µM |  | 20.5 µM |  | 3.94 µM |  | 15.2 µM |
